{"source": "ChEMBL document CHEMBL3507680", "about": "“University of Dundee, Gates Library screen for HepG2 cell viability”", "test": "Human HepG2 cell viability assay in 384 well format", "format": "toxicity, cell-based", "parameters": "dose 125 nL, time 70.5 hour; concentration not given beside the values", "conditions": "HepG2 cells, read-out: Inhibition"}
{"molecule": "O=C1NCCO[C@H]2CN(C(=O)c3cccs3)CC[C@@H]12", "values": [{"measurement": "cytotoxicity at 70.5 h", "value": 20.1, "unit": "%"}]}
{"molecule": "O=C1NCCO[C@H]2CN(C(=O)Cc3ccco3)CC[C@@H]12", "values": [{"measurement": "cytotoxicity at 70.5 h", "value": -5.72, "unit": "%"}]}
{"molecule": "Cc1csc(CN2C[C@@H]3CN(CC4CCOCC4)CCO[C@@H]3C2)n1", "values": [{"measurement": "cytotoxicity at 70.5 h", "value": -6.62, "unit": "%"}]}
{"molecule": "Cc1csc(CN2C[C@@H]3CN(C)CCO[C@@H]3C2)n1", "values": [{"measurement": "cytotoxicity at 70.5 h", "value": -3.79, "unit": "%"}]}
{"molecule": "Cc1cnc(C(=O)N2C[C@H](N3CCOCC3)[C@@H]3OCCC[C@@H]32)cn1", "values": [{"measurement": "cytotoxicity at 70.5 h", "value": -13.1, "unit": "%"}]}
{"molecule": "Cc1ccc(C(=O)N2C[C@@H](N3CCN(C)CC3)[C@H]3OCCC[C@H]32)cn1", "values": [{"measurement": "cytotoxicity at 70.5 h", "value": -11.9, "unit": "%"}]}
{"molecule": "Cc1nnc([C@@]23CCO[C@@H]2CCN(Cc2cccc4ccccc24)C3)o1", "values": [{"measurement": "cytotoxicity at 70.5 h", "value": -6.43, "unit": "%"}]}
{"molecule": "CCS(=O)(=O)N1CCC2(CCN(C(=O)c3cccs3)CC2)CC1", "values": [{"measurement": "cytotoxicity at 70.5 h", "value": -4.52, "unit": "%"}]}
{"molecule": "Cc1nnc([C@@]23CCO[C@@H]2CCN(Cc2scnc2C)C3)o1", "values": [{"measurement": "cytotoxicity at 70.5 h", "value": -10.2, "unit": "%"}]}
{"molecule": "Cc1ncccc1NC(=O)c1nc2c(n1C)CCN(C(=O)C1CC1)C2", "values": [{"measurement": "cytotoxicity at 70.5 h", "value": -8.28, "unit": "%"}]}
{"molecule": "COCc1cnc2n1CCN(C(=O)c1cc3cc(Cl)ccc3o1)C2C", "note": "(stereo not given)", "values": [{"measurement": "cytotoxicity at 70.5 h", "value": 18.3, "unit": "%"}]}
{"molecule": "CS(=O)(=O)N1C[C@@H]2COC[C@]2(C(=O)NCCc2cccs2)C1", "values": [{"measurement": "cytotoxicity at 70.5 h", "value": -7.21, "unit": "%"}]}
{"molecule": "CCOC1COC2(CCN(S(=O)(=O)c3ccc(F)cc3)CC2)C1", "note": "(stereo not given)", "values": [{"measurement": "cytotoxicity at 70.5 h", "value": -12.9, "unit": "%"}]}
{"molecule": "Cc1cnc(N2CCC3(C2)CN(S(=O)(=O)C2CC2)C3)nc1", "values": [{"measurement": "cytotoxicity at 70.5 h", "value": -8.82, "unit": "%"}]}
{"molecule": "CN(Cc1cccnc1)C[C@H]1OC[C@@H]2CCN(c3ncccn3)C[C@@H]21", "values": [{"measurement": "cytotoxicity at 70.5 h", "value": -0.858, "unit": "%"}]}
{"molecule": "Cc1noc(C)c1CN1CCn2c(COC(C)C)nnc2C1", "values": [{"measurement": "cytotoxicity at 70.5 h", "value": -10.8, "unit": "%"}]}
{"molecule": "COC[C@@]12CCO[C@@H]1CCN(C(=O)C1CCSCC1)C2", "values": [{"measurement": "cytotoxicity at 70.5 h", "value": -5.18, "unit": "%"}]}
{"molecule": "O=C([C@@H]1COC[C@H]2CN(C3CCCCC3)C[C@H]21)N1CCOCC1", "values": [{"measurement": "cytotoxicity at 70.5 h", "value": -9.47, "unit": "%"}]}
{"molecule": "O=C([C@H]1COC[C@H]2CN(C3CCCC3)C[C@H]21)N1CCOCC1", "values": [{"measurement": "cytotoxicity at 70.5 h", "value": -9.13, "unit": "%"}]}
{"molecule": "COC[C@@]12CCO[C@@H]1CCN(C(=O)C1CC(F)(F)C1)C2", "values": [{"measurement": "cytotoxicity at 70.5 h", "value": -11.5, "unit": "%"}]}
{"molecule": "COC[C@@]12CCO[C@@H]1CCN(C(=O)C1CCOCC1)C2", "values": [{"measurement": "cytotoxicity at 70.5 h", "value": -11.6, "unit": "%"}]}
{"molecule": "CCN(C(=O)c1ccc2nnc(C3CCN(C(C)=O)C3)n2c1)C(C)C", "note": "(stereo not given)", "values": [{"measurement": "cytotoxicity at 70.5 h", "value": -12.3, "unit": "%"}]}
{"molecule": "CCN(C(=O)c1ccc2nnc(C3CCN(S(C)(=O)=O)C3)n2c1)C(C)C", "note": "(stereo not given)", "values": [{"measurement": "cytotoxicity at 70.5 h", "value": -9.62, "unit": "%"}]}
{"molecule": "CC(=O)N1CCC(c2nnc3ccc(C(=O)NCC(C)C)cn23)C1", "note": "(stereo not given)", "values": [{"measurement": "cytotoxicity at 70.5 h", "value": -12.8, "unit": "%"}]}
{"molecule": "O=C(NCC1CCCCC1)N1C[C@H]2C[C@H](C(=O)N3CCOCC3)[C@@H](C1)O2", "values": [{"measurement": "cytotoxicity at 70.5 h", "value": 24.6, "unit": "%"}]}
{"molecule": "Cn1cnc2c(-c3ccccc3)nc(C3CCNCC3)cc21", "values": [{"measurement": "cytotoxicity at 70.5 h", "value": 13.6, "unit": "%"}]}
{"molecule": "CC(C)n1cnc2c(-c3cccnc3)nc(C3CCNCC3)cc21", "values": [{"measurement": "cytotoxicity at 70.5 h", "value": 12, "unit": "%"}]}
{"molecule": "O=C(NC1CC(F)(F)C1)[C@]12COC[C@H]1CN(Cc1ccccc1)C2", "values": [{"measurement": "cytotoxicity at 70.5 h", "value": -9.36, "unit": "%"}]}
{"molecule": "Cc1ncsc1CN1C[C@@H]2COC[C@]2(C(=O)NC2CC(F)(F)C2)C1", "values": [{"measurement": "cytotoxicity at 70.5 h", "value": -4.72, "unit": "%"}]}
{"molecule": "O=C(O)c1c(-c2cncnc2)ncc2c1CCN(CC1CCOC1)C2", "note": "(stereo not given)", "values": [{"measurement": "cytotoxicity at 70.5 h", "value": -4.73, "unit": "%"}]}
{"molecule": "Cn1ccnc1C(=O)N1CCC2(CCN2Cc2ccc(F)cc2)C1", "note": "(stereo not given)", "values": [{"measurement": "cytotoxicity at 70.5 h", "value": -3.38, "unit": "%"}]}
{"molecule": "CNC(=O)c1cc2c(nc1N(C)C)CCN(c1ncccn1)CC2", "values": [{"measurement": "cytotoxicity at 70.5 h", "value": -12, "unit": "%"}]}
{"molecule": "Cc1cc(C(=O)N2CCC3(CC2)C(=O)N(C)CCN3CC(C)C)c(C)o1", "values": [{"measurement": "cytotoxicity at 70.5 h", "value": -10.1, "unit": "%"}]}
{"molecule": "CCOC[C@]12COC[C@H]1CN(Cc1ccc3c(c1)OCO3)C2", "values": [{"measurement": "cytotoxicity at 70.5 h", "value": -6.35, "unit": "%"}]}
{"molecule": "CN1CCN(S(=O)(=O)c2cccc(F)c2)Cc2cccnc21", "values": [{"measurement": "cytotoxicity at 70.5 h", "value": -2.06, "unit": "%"}]}
{"molecule": "COCC(=O)NC[C@]12COC[C@H]1CN(Cc1ccc3c(c1)OCO3)C2", "values": [{"measurement": "cytotoxicity at 70.5 h", "value": -0.957, "unit": "%"}]}
{"molecule": "CS(=O)(=O)NC[C@]12COC[C@H]1CN(Cc1ccc3c(c1)OCO3)C2", "values": [{"measurement": "cytotoxicity at 70.5 h", "value": 5.12, "unit": "%"}]}
{"molecule": "COC[C@]12COC[C@H]1CN(Cc1ccc3c(c1)OCO3)C2", "values": [{"measurement": "cytotoxicity at 70.5 h", "value": -6.87, "unit": "%"}]}
{"molecule": "CCN1CC2(CCOCC2)c2cc(NS(=O)(=O)CC)ccc21", "values": [{"measurement": "cytotoxicity at 70.5 h", "value": -2.27, "unit": "%"}]}
{"molecule": "CCOC1CC2(CCN(C(=O)Cc3ccccn3)CC2)C1", "values": [{"measurement": "cytotoxicity at 70.5 h", "value": 18.1, "unit": "%"}]}
{"molecule": "Cc1nc(CO[C@H]2CN(C(=O)c3cnoc3C)[C@@H]3COC[C@H]23)cs1", "values": [{"measurement": "cytotoxicity at 70.5 h", "value": -3.09, "unit": "%"}]}
{"molecule": "c1ccc(NC[C@@H]2CCC[C@@H]3CN(Cc4cc[nH]n4)C[C@@H]32)nc1", "values": [{"measurement": "cytotoxicity at 70.5 h", "value": -12.4, "unit": "%"}]}
{"molecule": "CN(C)C1COC2(CCN(S(=O)(=O)c3ccc(F)cc3)CC2)C1", "note": "(stereo not given)", "values": [{"measurement": "cytotoxicity at 70.5 h", "value": -13.4, "unit": "%"}]}
{"molecule": "c1ccc(NC[C@@H]2CCC[C@@H]3CN(Cc4nccs4)C[C@@H]32)nc1", "values": [{"measurement": "cytotoxicity at 70.5 h", "value": -0.385, "unit": "%"}]}
{"molecule": "Cc1nnn2c1COCC(CNCc1nccs1)C2", "note": "(stereo not given)", "values": [{"measurement": "cytotoxicity at 70.5 h", "value": -10.3, "unit": "%"}]}
{"molecule": "O=C(NCCc1cccs1)[C@]12COC[C@H]1CN(C1CCOCC1)C2", "values": [{"measurement": "cytotoxicity at 70.5 h", "value": -6.34, "unit": "%"}]}
{"molecule": "Cn1cncc1C(=O)N1C[C@@H]2CCN(c3cnccn3)C[C@@H]2C1", "values": [{"measurement": "cytotoxicity at 70.5 h", "value": -11.9, "unit": "%"}]}
{"molecule": "Cn1ccnc1C(=O)N1C[C@@H]2CCN(c3cnccn3)C[C@@H]2C1", "values": [{"measurement": "cytotoxicity at 70.5 h", "value": -7.28, "unit": "%"}]}
{"molecule": "O=C(NC1CC(F)(F)C1)[C@]12COC[C@H]1CN(Cc1cccnc1)C2", "values": [{"measurement": "cytotoxicity at 70.5 h", "value": -10.6, "unit": "%"}]}
{"molecule": "COc1ncccc1CNC1CCc2c(ccc(=O)n2C)C1", "note": "(stereo not given)", "values": [{"measurement": "cytotoxicity at 70.5 h", "value": -1.32, "unit": "%"}]}
{"molecule": "O=C(O)c1c(-c2ccncc2)ncc2c1CCN(CC1CCOC1)C2", "note": "(stereo not given)", "values": [{"measurement": "cytotoxicity at 70.5 h", "value": -4.36, "unit": "%"}]}
{"molecule": "Cc1cccc(CN2CCC3(CCCN(Cc4cnn(C)c4)C3)C2)n1", "note": "(stereo not given)", "values": [{"measurement": "cytotoxicity at 70.5 h", "value": -14, "unit": "%"}]}
{"molecule": "COc1ncccc1CNC1CCc2c(ccc(=O)n2CC2CC2)C1", "note": "(stereo not given)", "values": [{"measurement": "cytotoxicity at 70.5 h", "value": -8.76, "unit": "%"}]}
{"molecule": "c1ccc(CN2CCCC3(CCN(CC4CCCO4)CC3)C2)nc1", "note": "(stereo not given)", "values": [{"measurement": "cytotoxicity at 70.5 h", "value": -9.93, "unit": "%"}]}
{"molecule": "Cc1ccc(CN2CC[C@H]3CO[C@H](CN4CCCC4)[C@H]3C2)o1", "values": [{"measurement": "cytotoxicity at 70.5 h", "value": -8.76, "unit": "%"}]}
